What was measured:
HEK 293 cells = assay: Cell growth assay; format: cell-based, human; conditions: data not shown
Method: (§1) Cells were seeded in 12-well plates and after overnight incubation were treated with indicated concentrations of each compound. After harvesting, cells were stained by Acridine Orange (AO) and DAPI. Cell number and viability were measured based on AO and DAPI fluorescence measured by NC3000 (Chemometec) following the manufacturer's instructions.

A549 = assay: Cell growth assay; format: cell-based, human; conditions: data not shown
Method: as §1

Jurkat = assay: Cell growth assay; format: cell-based, human; conditions: data not shown
Method: as §1

[1] = system: normal human diploid fibroblasts WI-38; assay: Cell growth assay; format: cell-based; conditions: data not shown
Method: as §1

ATP synthase (Complex V) = biological target: T1, ATP synthase (Complex V) (Mus musculus, UniProt P56480); assay: Mitochondrial coupling assay / respiratory control ratio; format: biochemical; conditions: mouse liver mitochondria
T1 construct: Mitochondria were isolated from mouse liver as described above; from tissue; host or cells: isolated mouse liver mitochondria
Method: Mitochondrial RCR was analyzed using isolated mouse liver mitochondria (see Brand, et al. Biochem J 435, 297-312 (2011) and references therein). Mitochondria were isolated from mouse liver as described above. The final mitochondrial pellet was resuspended in 30 μl of MAS buffer (70 mM sucrose, 220 mM mannitol, 10 mM KH2PO4, 5 mM MgCl2, 2 mM HEPES, 1 mM EGTA, and 0.2% fatty acid free BSA, pH 7.2).
Isolated mitochondrial respiration was measured by running coupling and electron flow assays as described (Rogers, et al. PLoS One 6, e21746 (2011)). For the coupling assay, 20 μg of mitochondria in complete MAS buffer (MAS buffer supplemented with 10 mM succinate and 2μM rotenone) were seeded into a XF24 Seahorse plate by centrifugation at 2,000×g for 20 minutes at 4° C. […] Mitochondrial respiration begins in a coupled State 2; State 3 is initiated by 2 mM ADP; State 4o (oligomycin-insensitive, i.e., Complex V-independent) is induced by 2.5 μM oligomycin and State 3u (FCCP uncoupled maximal respiratory capacity) by 4 μM FCCP. Finally, 1.5 μg/ml antimycin A was injected at the end of the assay.

[2] = system: electron transport chain (Complex I, Complex II, Complex IV); assay: Mitochondrial electron flow assay; format: biochemical, mouse
Method: Mitochondria were isolated from mouse liver as described above.
For the electron flow assay, the MAS buffer was supplemented with 10 mM sodium pyruvate (Complex I substrate), 2 mM malate (Complex II inhibitor), and 4 μM FCCP, and the mitochondria are seeded the same way as described for the coupling assay. After basal readings, the sequential injections were as follows: 2 μM rotenone (Complex I inhibitor), 10 mM succinate (Complex II substrate), 4 μM antimycin A (Complex III inhibitor), and 10 mM/100 μM ascorbate/tetramethylphenylenediamine (Complex IV substrate).

C. elegans [3] = assay: C. elegans lifespan analysis; format: in vivo, Caenorhabditis elegans; conditions: for mean lifespan: 8 mM; for effect on lifespan of adult C. elegans (in words): adult worms, metabolites at 8 mM; for lifespan of subjects (in words): experiments similar to those for α-KG and 2-HG compounds, data not shown
Method: Lifespan assays were conducted at 20° C. on solid nematode growth media (NGM) using standard protocols and were replicated in at least two independent experiments. […] All compounds were mixed into the NGM media after autoclaving and before solidification of the media. Assay plates were seeded with OP50 (or a designated RNAi feeding clone, see below). Worms were moved to new assay plates every 4 days (to ensure sufficient food was present at all times and to reduce the risk of mold contamination). […] For analysis concerning mutant strains, the corresponding parent strain was used as a control in the same experiment. […]
Lifespan data is provided in FIG. 13, including sample sizes. The sample size was chosen on the basis of standards done in the field in published manuscripts. No statistical method was used to predetermine the sample size. Animals were assigned randomly to the experimental groups. […] Lifespan data were analyzed using GraphPad Prism; P-values were calculated using the log-rank (Mantel-Cox) test.

ATP5B = biological target: T2, ATP5B (Homo sapiens, UniProt P06576); assay: DARTS (drug affinity responsive target stability) with Western blotting; format: binding; conditions: human cell lysates, Pronase digestion
T2 construct: HeLa cells were lysed in M-PER buffer; endogenous in cells; host or cells: HeLa (alpha-KG); U87 (2-HG)
T2 sequence (P06576 48-529): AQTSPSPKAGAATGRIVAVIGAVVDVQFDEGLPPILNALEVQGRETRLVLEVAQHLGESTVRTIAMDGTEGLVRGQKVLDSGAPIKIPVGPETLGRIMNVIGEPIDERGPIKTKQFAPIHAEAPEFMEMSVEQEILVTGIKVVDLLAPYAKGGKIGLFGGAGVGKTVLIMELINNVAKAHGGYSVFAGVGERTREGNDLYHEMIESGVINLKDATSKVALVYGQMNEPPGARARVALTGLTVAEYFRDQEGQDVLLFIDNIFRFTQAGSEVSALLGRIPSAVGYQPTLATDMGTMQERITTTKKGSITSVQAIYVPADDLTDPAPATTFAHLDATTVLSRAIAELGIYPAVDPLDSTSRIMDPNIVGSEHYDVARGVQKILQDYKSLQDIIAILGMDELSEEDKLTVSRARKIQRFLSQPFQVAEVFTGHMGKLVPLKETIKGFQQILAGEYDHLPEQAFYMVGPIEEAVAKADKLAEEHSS
Method: Target identification using DARTS was conducted in accordance with methods know in the art. […] The resulting digests were separated by SDS-PAGE and visualized using SYPRO Ruby Protein Gel Stain (Invitrogen, S12000).
GAPDH (Ambion, AM4300) was used as a negative control.
For 2-HG experiments, DARTS was performed as described above.

U87 cells [4] = assay: Oxygen consumption rate in U87 cells (2-HG experiments); format: cell-based, human
Method: For 2-HG experiments, OCR and ECAR measurements were made using a Seahorse XF-24 analyzer (Seahorse Bioscience) (Wu, et al. Am J Physiol Cell Physiol 292, C125-136 (2007)). U87 cells were seeded in Seahorse XF-24 cell culture microplates at 50,000 cells per well in DMEM supplemented with 10% FBS and either 10 mM glucose or 10 mM galactose, and incubated 0/N at 37° C. in 5% CO2. […] Cells were washed in unbuffered DMEM (pH 7.4, 10 mM glucose) immediately prior to measurement, and maintained in this buffer with indicated concentrations of compound. OCR or ECAR were measured 3 times under basal conditions and normalized to protein concentration per well. Statistical analysis was performed using GraphPad Prism (unpaired t-test, two-tailed, two-sample unequal variance).

U87 cells [5] = assay: Assay for ATP levels in U87 cells; format: cell-based, human; conditions: mitochondrial oxidative phosphorylation conditions, 2 hours
Method: For 2-HG experiments, U87 cells were seeded in 96-well plates at 2×10^4 cells per well and treated with indicated compound for 2 hours in triplicate. ATP levels were measured using the CellTiter-Glo luminescent ATP assay (Promega, G7572); luminescence was read using Analyst HT (Molecular Devices). […] Statistical analysis was performed using GraphPad Prism (unpaired t-test).

U87 cells [6] = assay: Cell growth and viability assays in U87 cells; format: cell-based, human
Method: IDH1(R132H) mutant or IDH1(WT) expressing U87 cells were as reported (Li, et al. Neuro Oncol 15, 57-68). […] All the cells were cultured at 37° C. and 5% CO2. Cells were transfected with indicated siRNA using Thermo Scientific DharmaFECT Transfection Reagent 1 by following the manufacturer's instructions.
as §1

U87 cells [7] = system: U87 cells
Method: Cells were cultured for 24 hours, rinsed with PBS, and medium containing [1,2-^13C]glucose (1 g/L) added. […] Cells were scraped off, transferred to an Eppendorf tube, and 10 nmol norvaline as well as 400 ml chloroform added to each sample. For the metabolite extraction, samples were vortexed for 5 minutes on ice, spun down, and the aqueous layer transferred into a glass vial and dried. Metabolites were resuspended in 70% ACN, and 5 ml sample loaded onto a Phenomenex Luna 3u NH2 100A (150×2.0 mm) column. The chromatographic separation was performed on an UltiMate 300RSLC (Thermo Scientific) with mobile phases A (5 mM NH4AcO, pH 9.9) and B (ACN) and a flow rate of 300 ml / minutes. […] TraceFinder 3.1 (Thermo Scientific) was used to quantify metabolites as area under the curve using retention time and accurate mass measurements (≤3 ppm). Relative amounts of metabolites were calculated by summing up all isotopomers of a given metabolite.

[8] = system: ADP import into the mitochondria; assay: Assay for ADP import; format: biochemical; conditions: mouse liver mitochondria, 600 μM; (R) P=0.4237, (S) P=0.1623
Method: Freshly prepared mice liver mitochondria were suspended at 1 μg/μl in medium consisting of 220 mM mannitol, 70 mM sucrose, 2 mM HEPES, 2.74 μM antimycin A, 5 μM rotenone, 1 mM
EGTA, and 10 mM potassium phosphate buffer, pH 7.4. The mitochondria suspension was incubated with designated drug for 30 minutes in 37° C. After incubation, the suspension was transferred to ice for 10 minutes incubation. Afterwards, 100 μM [^3H]ADP (specific radioactivity, 185 kBq/pmol) was added, and the mixture was immediately vortexed and incubated for 20 seconds on ice. The reaction was terminated by addition of 10 μM carboxyatractyloside, and the mixture was centrifuged at 10,000 g for 10 minutes at 4° C. After centrifuge, the supernatant was collected for reading and the pellet was washed twice with the same medium supplemented with 10 μM carboxyatractyloside. After washing, the pellet was lysed by the addition of 0.2 ml of 1% SDS. The radioactivity of the lysate and supernatant was determined by TRI-CARB 2300 TR liquid scintillation analyzer. The ADP-ATP translocation rate was determined by the ratio of the pellet versus the sum reading of the pellet and supernatant.

C. elegans [9] = assay: Assay for autophagy in C. elegans (GFP::LGG-1 puncta); format: in vivo, Caenorhabditis elegans
Method: Statistical analysis was performed using Microsoft Excel (t-test, two-tailed, two-sample unequal variance).

AMPK = AMPK (T172) phosphorylation by Western blotting; format: cell-based, human; conditions: WI-38 cells; higher concentration of octyl α-KG
Method: Western blotting was performed with specific antibodies against P-AMPK T172 (Cell Signaling Technology, 2535S) and AMPK (Cell Signaling Technology, 2603S). […] Number of GFP::LGG-1 containing puncta was quantitated using ImageJ. Bars indicate the mean. […] HEK-293 (Panel d) or HeLa (Panel e) cells were lysed in M-PER buffer (Thermo Scientific, 78501) with the addition of protease inhibitors (Roche, 11836153001) and phosphatase inhibitors (50 mM NaF, 10 mM β-glycerophosphate, 5 mM sodium pyrophosphate, 2 mM Na3VO4). Protein concentration of the lysate was measured by BCA Protein Assay kit (Pierce, 23227). […] Pronase (Roche, 10165921001) digestions were performed for 20 minutes at room temperature, and stopped by adding SDS loading buffer and immediately heating at 95° C. for 5 minutes (for Panel d) or 70° C. for 10 minutes (for Panel e). Samples were subjected to SDS-PAGE on 4-12% Bis-Tris gradient gel (Invitrogen, NP0322BOX) and Western blotted with specific antibodies against ATP5B (Santa Cruz, sc58618), mTOR (Cell Signaling Technology, 2972), or GAPDH (Ambion, AM4300). ImageJ was used to quantify the mTOR/GAPDH and ATP5B/GAPDH ratios.

mTOR = assay: Assay for mammalian TOR (mTOR) pathway activity; format: cell-based, human; conditions: U87 cells
Source text: Specific antibodies used: P-S6K T389 (Cell Signaling Technology, 9234), S6K (Cell Signaling Technology, 9202S), P-4E-BP1 S65 (Cell Signaling Technology, 9451S), 4E-BP1 (Cell Signaling Technology, 9452S), P-AKT S473 (Cell Signaling Technology, 4060S), AKT (Cell Signaling Technology, 4691S), P-ULK1 S757 (Cell Signaling Technology, 6888), ULK1 (Cell Signaling Technology, 4773S), and GAPDH (Santa Cruz Biotechnology, 25778).

## O=C(O)CCC(O)C(=O)O (stereo not shown) [2-HG, 2-hydroxypentanedioate]
HEK 293 cells
  cell growth: Growth inhibition
A549
  cell growth: Growth inhibition
Jurkat
  cell growth: Growth inhibition
[1]
  cell growth: Growth inhibition

## CCCCCCCCOC(=O)CCC(=O)C(=O)O [5-octyl α-KG, 5-(Octyloxy)-2,5-dioxopentanoic acid]
ATP synthase (Complex V)
  coupling assay, 1-octyl versus 5-octyl ester: identical results
[2]; mouse liver mitochondria
  electron flow assay, 1-octyl versus 5-octyl ester: identical results

## O=C(O)CC[C@@H](O)C(=O)O [(R)-2-HG, 2-hydroxyglutaric acid]
C. elegans [3]; FIG. 14 Panel B, vehicle 14.0
  mean lifespan: 20.0 days of adulthood
C. elegans [3]
  effect on lifespan of adult C. elegans (in words): increase the lifespan
ATP5B
  binding to ATP5B by DARTS: bind

## O=C(O)CC[C@H](O)C(=O)O [(S)-2-HG, 2-hydroxyglutaric acid]
C. elegans [3]; FIG. 14 Panel C, vehicle 15.7
  mean lifespan: 20.7 days of adulthood
C. elegans [3]
  effect on lifespan of adult C. elegans (in words): increase the lifespan
ATP5B
  binding to ATP5B by DARTS: bind

## N[C@H](CCC(=O)O)C(=O)O [D-glutamate]
C. elegans [3]
  lifespan of subjects (in words): increases the lifespan

## N[C@@H](CCC(=O)O)C(=O)O [L-glutamate]
C. elegans [3]
  lifespan of subjects (in words): increases the lifespan

## CC(C)C[C@H](N)C(=O)O [Leu]
C. elegans [3]; FIG. 14 Panel B, vehicle 14.0
  mean lifespan: 13.2 days of adulthood

## CSCC[C@H](N)C(=O)O [Met]
C. elegans [3]; FIG. 14 Panel B, vehicle 14.0
  mean lifespan: 14.7 days of adulthood

## O=C([O-])CCC(=O)C(=O)[O-].[Na+].[Na+] [Na2α-KG]
C. elegans [3]; FIG. 14 Panel C, vehicle 15.7
  mean lifespan: 21.5 days of adulthood

## CCCCCCCCOC(=O)C(O)CCC(=O)O (stereo not shown) [octyl 2-HG]
U87 cells [4]; U87 cells
  ATP synthase dependent (oligomycin sensitive) oxygen consumption rate: decreased
U87 cells [4]; U87 cells in glucose media
  respiration as indicated by OCR: decreased
U87 cells [5]
  ATP content: decreased
ATP synthase (Complex V); 600 μM, octanol vehicle
  state 3 respiration: decreases
  state 4o or 3u respiration: not
[2]; 30 minute treatment, 600 μM
  Complex I, Complex II, or Complex IV respiration: No difference
U87 cells [6]; glucose medium, to a lesser extent, not shown
  growth rate: reduced
U87 cells [6]; glucose-free medium, 400 μM and 800 μM
  growth rate: decreased growth rate
U87 cells [7]
  accumulation of 2-HG in treated cells: 20-100 fold

## CCCCCCCCOC(=O)[C@H](O)CCC(=O)O [octyl (R)-2-HG, 1-Octyl (R) 2-hydroxypentanedioate]
[8]
  ADP import: does not affect
U87 cells [6]; 400 μM and 800 μM
  viability upon glucose starvation: decreased

## CCCCCCCCOC(=O)[C@@H](O)CCC(=O)O [octyl (S)-2-HG, 1-Octyl (S) 2-hydroxypentanedioate]
[8]
  ADP import: does not affect
U87 cells [6]; 400 μM and 800 μM
  viability upon glucose starvation: decreased

## CC[C@H]1/C=C/C=C/C[C@@H](C)[C@H](O)[C@@](C)(O)C(=O)[C@@H](C)[C@H](O)[C@@H](C)C(=O)[C@@H](C)[C@H](O)[C@@H](C)/C=C/C(=O)O[C@@H]2[C@H](C)[C@H](CC1)O[C@]1(CC[C@H](C)[C@H](C[C@@H](C)O)O1)[C@H]2C [oligomycin, reference compound]
C. elegans [9]; CeTOR(RNAi) worms, oligomycin
  autophagy (GFP::LGG-1 puncta): does not augment
C. elegans [9]; L3 epidermis, oligomycin 40, α-KG 8 mM, versus vehicle
  autophagy (GFP::LGG-1 puncta): significantly higher
U87 cells [5]
  ATP content: decreased
C. elegans [3]; 40 μM, from young adult stage
  increase of mean lifespan of N2 worms: 32.3%
C. elegans [3]
  effect on lifespan of adult C. elegans (in words): extends the lifespan
AMPK
  P-AMPK (T172): increased
mTOR
  phosphorylation of mTOR substrates: decreased

Reference: patent US20230218559A1, “Compositions and Methods for Treating Aging and Age-Related Diseases and Symptoms” (The Regents of the University of California, priority 2014, published 2023)
